Test results reported in PubChem BioAssay AID1259407 (Chemical Carcinogenesis Research Information System (CCRIS), 2018).
Active and inactive are the calls of the source. No rule for the calls is given here.

Test system: CCRIS mutagenicity, Ames/micronucleus/aberration tests
Assay: CCRIS mutagenicity studies
[1] = Test System: AMES SALMONELLA TYPHIMURIUM, Strain/Indicator: TA98, Metabolic Activation: NONE, Method: PREINCUBATION
[2] = Test System: AMES SALMONELLA TYPHIMURIUM, Strain/Indicator: TA100, Metabolic Activation: NONE, Method: PREINCUBATION
[3] = Test System: AMES SALMONELLA TYPHIMURIUM, Strain/Indicator: TA98, Metabolic Activation: NONE, Method: STANDARD PLATE
[4] = Test System: AMES SALMONELLA TYPHIMURIUM, Strain/Indicator: TA98, Metabolic Activation: RAT, LIVER, S-9, AROCLOR 1254, Method: STANDARD PLATE
[5] = Test System: AMES SALMONELLA TYPHIMURIUM, Strain/Indicator: TA1535, Metabolic Activation: NONE, Method: PREINCUBATION
[6] = Test System: AMES SALMONELLA TYPHIMURIUM, Strain/Indicator: TA1537, Metabolic Activation: NONE, Method: PREINCUBATION
[7] = Test System: AMES SALMONELLA TYPHIMURIUM, Strain/Indicator: TA100, Metabolic Activation: NONE, Method: STANDARD PLATE
[8] = Test System: AMES SALMONELLA TYPHIMURIUM, Strain/Indicator: TA100, Metabolic Activation: RAT, LIVER, S-9, AROCLOR 1254, Method: STANDARD PLATE
[9] = Test System: AMES SALMONELLA TYPHIMURIUM, Strain/Indicator: TA1537, Metabolic Activation: RAT, LIVER, S-9, AROCLOR 1254, Method: STANDARD PLATE

Structure (SMILES): NNc1ccccc1[N+](=O)[O-]
- mutagenic call [1]: active; positive
- mutagenic call (Test System: AMES SALMONELLA TYPHIMURIUM, Strain/Indicator: TA98, Metabolic Activation: RAT, LIVER, S-9, KANECHLOR 500, Method: PREINCUBATION): active; positive
- mutagenic call [2]: active; positive

Structure (SMILES): CC1=C(O)C(=O)CO1
- mutagenic call [2]: active; positive
- mutagenic call (Test System: AMES SALMONELLA TYPHIMURIUM, Strain/Indicator: TA100, Metabolic Activation: RAT, LIVER, S-9, PHENOBARBITAL AND 5,6-BENZOFLAVONE, Method: PREINCUBATION): active; positive

Structure (SMILES): O=C1c2ccccc2-c2cc3ccccc3cc21
- mutagenic call [3]: active; positive
- mutagenic call [4]: active; positive

Structure (SMILES): COc1ccc([C@H]2O[C@H]2C)cc1
- mutagenic call [1]: inactive; negative
- mutagenic call [2]: active; positive
- mutagenic call [5]: active; positive

Structure (SMILES): Nc1ccccc1S
- mutagenic call (End Point: In vitro chromosomal aberrations, Test System: Chinese hamster lung (CHL/IU) cells, Metabolic Activation: Rat, Liver, S9, Phenobarbital and 5,6-benzoflavone): active; positive (structural changes and ploidy).
- mutagenic call (Test System: AMES SALMONELLA TYPHIMURIUM, Strain/Indicator: TA98, Metabolic Activation: RAT, LIVER, S-9, PHENOBARBITAL AND BETA-NAPHTHOFLAVONE, Method: PREINCUBATION): inactive; negative
- mutagenic call [2]: inactive; negative
- mutagenic call (Test System: AMES SALMONELLA TYPHIMURIUM, Strain/Indicator: TA100, Metabolic Activation: RAT, LIVER, S-9, PHENOBARBITAL AND BETA-NAPHTHOFLAVONE, Method: PREINCUBATION): inactive; negative
- mutagenic call [5]: inactive; negative
- mutagenic call (Test System: AMES SALMONELLA TYPHIMURIUM, Strain/Indicator: TA1535, Metabolic Activation: RAT, LIVER, S-9, PHENOBARBITAL AND BETA-NAPHTHOFLAVONE, Method: PREINCUBATION): inactive; negative
- mutagenic call [6]: inactive; negative
- mutagenic call (Test System: AMES SALMONELLA TYPHIMURIUM, Strain/Indicator: TA1537, Metabolic Activation: RAT, LIVER, S-9, PHENOBARBITAL AND BETA-NAPHTHOFLAVONE, Method: PREINCUBATION): inactive; negative
- mutagenic call (Test System: AMES SALMONELLA TYPHIMURIUM, Strain/Indicator: TA1537, Metabolic Activation: RAT, LIVER, S-9, SODIUM PHENOBARBITAL AND 5,6-BENZOFLAVONE, Method: PREINCUBATION): inactive; negative
- mutagenic call (Test System: E. COLI, Strain/Indicator: WP2UVRA, Metabolic Activation: NONE, Method: PREINCUBATION): inactive; negative
- mutagenic call (Test System: E. COLI, Strain/Indicator: WP2UVRA, Metabolic Activation: RAT, LIVER, S-9, PHENOBARBITAL AND BETA-NAPHTHOFLAVONE, Method: PREINCUBATION): inactive; negative

Structure (SMILES): NNc1nncc2cccnc12
- mutagenic call [1]: active; positive
- mutagenic call (Test System: AMES SALMONELLA TYPHIMURIUM, Strain/Indicator: TA98, Metabolic Activation: RAT, LIVER, S-9, PCB, Method: PREINCUBATION): active; positive
- mutagenic call [2]: active; positive
- mutagenic call (Test System: AMES SALMONELLA TYPHIMURIUM, Strain/Indicator: TA100, Metabolic Activation: RAT, LIVER, S-9, PCB, Method: PREINCUBATION): active; positive

Structure (SMILES): CC(=C\C1=CCOC1=O)/C=C(C)/C=C/C=C(\C)C(=O)[C@]12O[C@H]1[C@@](O)(CCO)NC2=O
- mutagenic call [2]: active; positive

Structure (SMILES): CC(=O)O[C@@H]1[C@@H](O)[C@H](O[C@H]2[C@H](OC(=O)[C@H]3CC[C@@H]4[C@H](C3)O[C@@]3(C[C@H](OC(=O)/C=C/c5ccccc5)[C@H](C)CO3)[C@]43CO3)O[C@H](C)[C@@H](O)[C@@H]2OC(C)=O)O[C@H](C)[C@H]1O
- mutagenic call (Test System: AMES SALMONELLA TYPHIMURIUM, Strain/Indicator: TA98, Metabolic Activation: HAMSTER, LIVER, S-9, AROCLOR 1254, Method: STANDARD PLATE): inactive; negative
- mutagenic call [3]: inactive; negative
- mutagenic call [4]: inactive; negative
- mutagenic call (Test System: AMES SALMONELLA TYPHIMURIUM, Strain/Indicator: TA100, Metabolic Activation: HAMSTER, LIVER, S-9, AROCLOR 1254, Method: STANDARD PLATE): inactive; negative
- mutagenic call [7]: inactive; negative
- mutagenic call [8]: inactive; negative
- mutagenic call (Test System: AMES SALMONELLA TYPHIMURIUM, Strain/Indicator: TA1535, Metabolic Activation: HAMSTER, LIVER, S-9, AROCLOR 1254, Method: STANDARD PLATE): inactive; negative
- mutagenic call (Test System: AMES SALMONELLA TYPHIMURIUM, Strain/Indicator: TA1535, Metabolic Activation: NONE, Method: STANDARD PLATE): inactive; negative
- mutagenic call (Test System: AMES SALMONELLA TYPHIMURIUM, Strain/Indicator: TA1535, Metabolic Activation: RAT, LIVER, S-9, AROCLOR 1254, Method: STANDARD PLATE): inactive; negative
- mutagenic call (Test System: AMES SALMONELLA TYPHIMURIUM, Strain/Indicator: TA1537, Metabolic Activation: HAMSTER, LIVER, S-9, AROCLOR 1254, Method: STANDARD PLATE): inactive; negative
- mutagenic call (Test System: AMES SALMONELLA TYPHIMURIUM, Strain/Indicator: TA1537, Metabolic Activation: NONE, Method: STANDARD PLATE): inactive; negative
- mutagenic call [9]: inactive; negative

Structure (SMILES): Cc1c(N)nc(C(CC(N)=O)NCC(N)C(N)=O)nc1C(=O)NC(C(=O)NC(C)C(O)C(C)C(=O)NC(C(=O)NCCc1nc(-c2nc(C(=O)NCCc3cnc[nH]3)cs2)cs1)C(C)O)C(OC1OC(CO)C(O)C(O)C1OC1OC(CO)C(O)C(OC(N)=O)C1O)c1cnc[nH]1 (configuration not stated)
- mutagenic call (Test System: AMES SALMONELLA TYPHIMURIUM, Strain/Indicator: TA102, Metabolic Activation: NONE, Method: PREINCUBATION): active; positive

Structure (SMILES): CC(=O)/C=C/c1ccc2c(c1)OCO2
- mutagenic call (Test System: AMES SALMONELLA TYPHIMURIUM, Strain/Indicator: TA98, Metabolic Activation: HAMSTER, LIVER, S-9, AROCLOR 1254 (10%), Method: PREINCUBATION): inactive; negative
- mutagenic call [1]: inactive; negative
- mutagenic call (Test System: AMES SALMONELLA TYPHIMURIUM, Strain/Indicator: TA98, Metabolic Activation: RAT, LIVER, S-9, AROCLOR 1254 (10%), Method: PREINCUBATION): inactive; negative
- mutagenic call (Test System: AMES SALMONELLA TYPHIMURIUM, Strain/Indicator: TA100, Metabolic Activation: HAMSTER, LIVER, S-9, AROCLOR 1254 (10%), Method: PREINCUBATION): inactive; negative
- mutagenic call [2]: inactive; negative
- mutagenic call (Test System: AMES SALMONELLA TYPHIMURIUM, Strain/Indicator: TA100, Metabolic Activation: RAT, LIVER, S-9, AROCLOR 1254 (10%), Method: PREINCUBATION): inactive; negative
- mutagenic call (Test System: AMES SALMONELLA TYPHIMURIUM, Strain/Indicator: TA1535, Metabolic Activation: HAMSTER, LIVER, S-9, AROCLOR 1254 (10%), Method: PREINCUBATION): inactive; negative
- mutagenic call [5]: inactive; negative
- mutagenic call (Test System: AMES SALMONELLA TYPHIMURIUM, Strain/Indicator: TA1535, Metabolic Activation: RAT, LIVER, S-9, AROCLOR 1254 (10%), Method: PREINCUBATION): inactive; negative
- mutagenic call (Test System: AMES SALMONELLA TYPHIMURIUM, Strain/Indicator: TA1537, Metabolic Activation: HAMSTER, LIVER, S-9, AROCLOR 1254 (10%), Method: PREINCUBATION): inactive; negative
- mutagenic call [6]: inactive; negative
- mutagenic call (Test System: AMES SALMONELLA TYPHIMURIUM, Strain/Indicator: TA1537, Metabolic Activation: RAT, LIVER, S-9, AROCLOR 1254 (10%), Method: PREINCUBATION): inactive; negative

Structure (SMILES): CC(=O)c1c(O)cc(O)c2c1C(=O)c1cc(O)cc(O)c1C2=O
- mutagenic call [3]: inactive; negative
- mutagenic call [4]: inactive; negative
- mutagenic call [7]: inactive; negative
- mutagenic call [8]: inactive; negative
- mutagenic call [9]: inactive; negative

Structure (SMILES): CCCN(CCCCO)N=O
- mutagenic call (Test System: AMES SALMONELLA TYPHIMURIUM, Strain/Indicator: TA1535, Metabolic Activation: RAT, LIVER, S-9, KC500 OR PHENOBARBITAL, Method: LIQUID SUSPENSION): active; positive
